Read-outs that look alike come from different tables or passages of the source.
What was measured:
Type in all cases: biochemical
DAPK1 = DAPK1 (Homo sapiens, UniProt P53355); assay: Kinase profiling DAPK1; conditions: for remaining activity at 100 µM: read-out: residual kinase activity, DAPK1
Text: (§1) Any value less that 25 is considered to be highly significant inhibition.

MLK1 = MLK1 (Homo sapiens, UniProt P80192); assay: Kinase profiling MLK1; conditions: for remaining activity at 100 µM: read-out: residual kinase activity, MLK1
Text: as §1

MEKK1 = MEKK1 (Homo sapiens, UniProt Q13233); assay: Kinase profiling MEKK1; conditions: for remaining activity at 100 µM: read-out: residual kinase activity, MEKK1
Text: as §1

MINK1 = MINK1 (Homo sapiens, UniProt Q8N4C8); assay: Kinase profiling MINK1; conditions: for remaining activity at 100 µM: read-out: residual kinase activity, MINK1
Text: as §1

BRK = BRK (Homo sapiens, UniProt Q13882); assay: Kinase profiling BRK; conditions: for remaining activity at 100 µM: read-out: residual kinase activity, BRK
Text: as §1

SIK2 = SIK2 (Homo sapiens, UniProt Q9H0K1); assay: Kinase profiling SIK2; conditions: for remaining activity at 100 µM: read-out: residual kinase activity, SIK2
Text: as §1

CK1γ2 = CK1γ2 (Homo sapiens, UniProt P78368); assay: Kinase profiling CK1γ2; conditions: for remaining activity at 100 µM: read-out: residual kinase activity, CK1γ2
Text: as §1

BRSK2 = molecular target: T1, BRSK2 (Homo sapiens, UniProt Q8IWQ3); assay: Kinase profiling BRSK2; conditions: for remaining activity at 100 µM: read-out: residual kinase activity, BRSK2
T1 sequence (Q8IWQ3 1-736): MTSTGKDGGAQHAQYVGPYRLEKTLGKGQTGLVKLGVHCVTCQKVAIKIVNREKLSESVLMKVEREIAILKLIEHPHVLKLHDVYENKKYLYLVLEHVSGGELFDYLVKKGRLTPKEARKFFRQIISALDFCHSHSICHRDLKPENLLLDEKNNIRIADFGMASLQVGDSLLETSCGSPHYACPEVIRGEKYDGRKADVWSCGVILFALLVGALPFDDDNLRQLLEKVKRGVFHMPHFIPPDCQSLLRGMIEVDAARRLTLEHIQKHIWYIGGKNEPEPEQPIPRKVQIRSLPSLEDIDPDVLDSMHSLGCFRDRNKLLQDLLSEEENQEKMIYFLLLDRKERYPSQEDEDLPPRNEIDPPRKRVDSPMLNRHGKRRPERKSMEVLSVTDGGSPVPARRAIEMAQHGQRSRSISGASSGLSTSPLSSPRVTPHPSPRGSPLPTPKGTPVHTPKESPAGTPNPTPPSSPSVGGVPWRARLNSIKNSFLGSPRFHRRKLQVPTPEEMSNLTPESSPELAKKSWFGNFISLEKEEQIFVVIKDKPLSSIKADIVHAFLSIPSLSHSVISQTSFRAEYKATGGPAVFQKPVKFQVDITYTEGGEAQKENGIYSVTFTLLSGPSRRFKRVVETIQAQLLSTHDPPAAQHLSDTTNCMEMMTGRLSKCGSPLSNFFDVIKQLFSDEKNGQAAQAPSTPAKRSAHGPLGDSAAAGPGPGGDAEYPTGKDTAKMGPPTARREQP
Text: as §1

PIM2 = PIM2 (Homo sapiens, UniProt Q9P1W9); assay: Kinase profiling PIM2; conditions: for remaining activity at 100 µM: read-out: residual kinase activity, PIM2
Text: as §1

CSK = CSK (Homo sapiens, UniProt P41240); assay: Kinase profiling CSK; conditions: for remaining activity at 100 µM: read-out: residual kinase activity, CSK
Text: as §1

MST4 = MST4 (Homo sapiens, UniProt Q9P289); assay: Kinase profiling MST4; conditions: for remaining activity at 100 µM: read-out: residual kinase activity, MST4
Text: as §1

CDK9-Cyclin T1 = CDK9-Cyclin T1 (Homo sapiens, UniProt P50750); assay: Kinase profiling CDK9-Cyclin T1; conditions: for remaining activity at 100 µM: read-out: residual kinase activity, CDK9-Cyclin T1
Text: as §1

MNK1 = MNK1 (Homo sapiens, UniProt Q9BUB5); assay: Kinase profiling MNK1; conditions: for remaining activity at 100 µM: read-out: residual kinase activity, MNK1
Text: as §1

AMPK = assay: Kinase profiling AMPK; conditions: 100 micromolar inhibitor concentration; 100 is no change
Text: as §1

IKKb = molecular target: T2, IKKb (Homo sapiens, UniProt O14920); assay: Kinase profiling IKKb; conditions: for remaining activity at 100 µM: read-out: residual kinase activity, IKKb
T2 sequence (O14920 1-756): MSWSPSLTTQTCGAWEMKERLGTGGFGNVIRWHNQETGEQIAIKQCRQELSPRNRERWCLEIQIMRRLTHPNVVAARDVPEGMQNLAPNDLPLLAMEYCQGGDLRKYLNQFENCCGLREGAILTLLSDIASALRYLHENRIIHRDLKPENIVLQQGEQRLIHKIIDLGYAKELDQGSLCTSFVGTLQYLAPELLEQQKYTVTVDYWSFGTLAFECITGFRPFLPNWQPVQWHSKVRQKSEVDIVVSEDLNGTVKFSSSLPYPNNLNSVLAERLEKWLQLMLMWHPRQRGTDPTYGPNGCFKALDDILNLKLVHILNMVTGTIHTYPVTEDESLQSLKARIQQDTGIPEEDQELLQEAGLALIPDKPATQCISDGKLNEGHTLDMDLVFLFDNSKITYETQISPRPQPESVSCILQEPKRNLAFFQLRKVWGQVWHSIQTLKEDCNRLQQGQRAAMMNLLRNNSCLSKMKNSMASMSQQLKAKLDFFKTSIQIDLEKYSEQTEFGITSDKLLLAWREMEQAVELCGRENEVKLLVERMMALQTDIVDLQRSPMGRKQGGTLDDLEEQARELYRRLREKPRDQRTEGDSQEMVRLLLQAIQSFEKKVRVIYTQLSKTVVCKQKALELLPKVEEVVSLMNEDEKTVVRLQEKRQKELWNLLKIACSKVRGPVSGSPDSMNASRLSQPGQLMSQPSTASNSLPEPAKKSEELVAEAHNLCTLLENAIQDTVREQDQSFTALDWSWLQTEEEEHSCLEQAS
Text: as §1

[1] = 100 micromolar inhibitor concentration, 100 is no change

Chain of CDK9-Cyclin T1 (P50750 whole entry): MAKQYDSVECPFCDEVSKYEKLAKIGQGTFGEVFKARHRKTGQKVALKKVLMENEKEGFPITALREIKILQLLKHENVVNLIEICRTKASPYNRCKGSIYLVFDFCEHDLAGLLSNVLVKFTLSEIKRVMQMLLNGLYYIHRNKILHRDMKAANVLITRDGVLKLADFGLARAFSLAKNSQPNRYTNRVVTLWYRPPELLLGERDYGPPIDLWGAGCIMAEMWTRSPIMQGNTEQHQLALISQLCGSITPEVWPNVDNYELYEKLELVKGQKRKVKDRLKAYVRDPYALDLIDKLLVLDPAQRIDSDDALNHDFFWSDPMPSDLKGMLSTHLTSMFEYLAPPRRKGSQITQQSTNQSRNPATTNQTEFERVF
Chain of CDK9-Cyclin T1 (O60563 whole entry partner): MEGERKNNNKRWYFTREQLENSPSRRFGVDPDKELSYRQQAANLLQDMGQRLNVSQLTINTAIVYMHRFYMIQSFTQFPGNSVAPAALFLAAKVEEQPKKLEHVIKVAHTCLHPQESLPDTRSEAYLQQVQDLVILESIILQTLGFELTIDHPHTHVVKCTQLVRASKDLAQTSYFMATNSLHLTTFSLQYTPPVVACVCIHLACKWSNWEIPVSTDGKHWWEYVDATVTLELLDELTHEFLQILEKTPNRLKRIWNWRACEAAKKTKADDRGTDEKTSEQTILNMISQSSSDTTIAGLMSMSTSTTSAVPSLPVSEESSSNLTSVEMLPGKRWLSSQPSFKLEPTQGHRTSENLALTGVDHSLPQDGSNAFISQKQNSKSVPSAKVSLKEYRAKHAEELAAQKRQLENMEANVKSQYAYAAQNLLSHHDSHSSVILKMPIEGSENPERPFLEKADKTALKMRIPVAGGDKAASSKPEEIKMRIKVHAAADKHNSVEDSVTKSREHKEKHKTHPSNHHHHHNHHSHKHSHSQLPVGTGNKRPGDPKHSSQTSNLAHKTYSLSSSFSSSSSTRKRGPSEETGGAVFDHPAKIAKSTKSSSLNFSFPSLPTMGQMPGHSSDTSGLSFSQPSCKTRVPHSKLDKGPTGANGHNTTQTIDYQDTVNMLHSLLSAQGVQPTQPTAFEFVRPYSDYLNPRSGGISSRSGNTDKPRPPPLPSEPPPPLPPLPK
Chain of MLK1 (P80192 whole entry, species assumed): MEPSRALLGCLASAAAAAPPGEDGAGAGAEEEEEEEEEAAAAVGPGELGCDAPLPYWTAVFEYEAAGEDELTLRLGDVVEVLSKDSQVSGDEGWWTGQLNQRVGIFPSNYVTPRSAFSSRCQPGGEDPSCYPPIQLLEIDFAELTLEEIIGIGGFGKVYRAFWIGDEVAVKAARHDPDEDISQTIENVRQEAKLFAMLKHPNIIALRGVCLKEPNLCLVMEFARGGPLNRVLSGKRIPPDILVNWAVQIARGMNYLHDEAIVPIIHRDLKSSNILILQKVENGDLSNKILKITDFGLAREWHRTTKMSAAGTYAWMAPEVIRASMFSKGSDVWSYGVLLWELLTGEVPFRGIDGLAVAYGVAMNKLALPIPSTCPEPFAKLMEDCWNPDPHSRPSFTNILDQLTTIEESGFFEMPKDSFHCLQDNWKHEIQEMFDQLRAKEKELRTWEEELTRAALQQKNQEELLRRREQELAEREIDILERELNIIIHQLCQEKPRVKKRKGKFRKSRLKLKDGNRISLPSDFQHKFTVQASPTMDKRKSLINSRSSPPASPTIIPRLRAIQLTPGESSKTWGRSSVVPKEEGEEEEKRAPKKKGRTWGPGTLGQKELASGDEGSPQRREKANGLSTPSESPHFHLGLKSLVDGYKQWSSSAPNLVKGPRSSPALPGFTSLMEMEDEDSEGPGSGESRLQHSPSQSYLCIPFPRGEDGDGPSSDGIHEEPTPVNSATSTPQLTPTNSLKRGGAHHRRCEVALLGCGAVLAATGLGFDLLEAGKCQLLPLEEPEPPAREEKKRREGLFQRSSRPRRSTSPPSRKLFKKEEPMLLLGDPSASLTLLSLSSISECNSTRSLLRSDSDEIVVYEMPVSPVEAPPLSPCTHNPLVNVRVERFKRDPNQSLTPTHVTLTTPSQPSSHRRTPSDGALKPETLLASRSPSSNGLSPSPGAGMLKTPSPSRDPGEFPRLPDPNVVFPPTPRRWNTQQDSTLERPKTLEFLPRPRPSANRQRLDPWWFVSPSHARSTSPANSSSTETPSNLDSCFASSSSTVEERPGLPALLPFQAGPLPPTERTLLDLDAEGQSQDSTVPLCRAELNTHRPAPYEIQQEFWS
Chain of MST4 (Q9P289 whole entry, species assumed): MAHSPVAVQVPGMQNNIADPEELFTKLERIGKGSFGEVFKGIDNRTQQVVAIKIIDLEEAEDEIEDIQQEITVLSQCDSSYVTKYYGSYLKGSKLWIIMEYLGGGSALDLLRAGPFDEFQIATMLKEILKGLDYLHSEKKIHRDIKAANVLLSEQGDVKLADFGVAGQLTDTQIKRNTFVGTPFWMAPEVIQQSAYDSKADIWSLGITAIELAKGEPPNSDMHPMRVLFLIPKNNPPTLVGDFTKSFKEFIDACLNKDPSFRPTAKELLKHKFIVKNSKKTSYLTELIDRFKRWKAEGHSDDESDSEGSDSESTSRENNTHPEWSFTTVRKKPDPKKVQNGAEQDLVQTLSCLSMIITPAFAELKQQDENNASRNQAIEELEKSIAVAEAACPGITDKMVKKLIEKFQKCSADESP
Chain of CK1γ2 (P78368 whole entry): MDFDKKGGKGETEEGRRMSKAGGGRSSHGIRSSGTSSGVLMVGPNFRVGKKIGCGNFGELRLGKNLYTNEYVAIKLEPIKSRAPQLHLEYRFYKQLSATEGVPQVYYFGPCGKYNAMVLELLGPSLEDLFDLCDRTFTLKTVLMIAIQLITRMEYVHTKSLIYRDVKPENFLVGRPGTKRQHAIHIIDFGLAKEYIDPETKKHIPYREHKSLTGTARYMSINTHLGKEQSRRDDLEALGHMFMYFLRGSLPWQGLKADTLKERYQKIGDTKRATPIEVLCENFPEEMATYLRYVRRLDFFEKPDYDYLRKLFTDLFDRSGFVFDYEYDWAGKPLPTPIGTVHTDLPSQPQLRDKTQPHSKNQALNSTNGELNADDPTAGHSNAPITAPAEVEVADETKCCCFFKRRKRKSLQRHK
Chain of MINK1 (Q8N4C8 whole entry, species assumed): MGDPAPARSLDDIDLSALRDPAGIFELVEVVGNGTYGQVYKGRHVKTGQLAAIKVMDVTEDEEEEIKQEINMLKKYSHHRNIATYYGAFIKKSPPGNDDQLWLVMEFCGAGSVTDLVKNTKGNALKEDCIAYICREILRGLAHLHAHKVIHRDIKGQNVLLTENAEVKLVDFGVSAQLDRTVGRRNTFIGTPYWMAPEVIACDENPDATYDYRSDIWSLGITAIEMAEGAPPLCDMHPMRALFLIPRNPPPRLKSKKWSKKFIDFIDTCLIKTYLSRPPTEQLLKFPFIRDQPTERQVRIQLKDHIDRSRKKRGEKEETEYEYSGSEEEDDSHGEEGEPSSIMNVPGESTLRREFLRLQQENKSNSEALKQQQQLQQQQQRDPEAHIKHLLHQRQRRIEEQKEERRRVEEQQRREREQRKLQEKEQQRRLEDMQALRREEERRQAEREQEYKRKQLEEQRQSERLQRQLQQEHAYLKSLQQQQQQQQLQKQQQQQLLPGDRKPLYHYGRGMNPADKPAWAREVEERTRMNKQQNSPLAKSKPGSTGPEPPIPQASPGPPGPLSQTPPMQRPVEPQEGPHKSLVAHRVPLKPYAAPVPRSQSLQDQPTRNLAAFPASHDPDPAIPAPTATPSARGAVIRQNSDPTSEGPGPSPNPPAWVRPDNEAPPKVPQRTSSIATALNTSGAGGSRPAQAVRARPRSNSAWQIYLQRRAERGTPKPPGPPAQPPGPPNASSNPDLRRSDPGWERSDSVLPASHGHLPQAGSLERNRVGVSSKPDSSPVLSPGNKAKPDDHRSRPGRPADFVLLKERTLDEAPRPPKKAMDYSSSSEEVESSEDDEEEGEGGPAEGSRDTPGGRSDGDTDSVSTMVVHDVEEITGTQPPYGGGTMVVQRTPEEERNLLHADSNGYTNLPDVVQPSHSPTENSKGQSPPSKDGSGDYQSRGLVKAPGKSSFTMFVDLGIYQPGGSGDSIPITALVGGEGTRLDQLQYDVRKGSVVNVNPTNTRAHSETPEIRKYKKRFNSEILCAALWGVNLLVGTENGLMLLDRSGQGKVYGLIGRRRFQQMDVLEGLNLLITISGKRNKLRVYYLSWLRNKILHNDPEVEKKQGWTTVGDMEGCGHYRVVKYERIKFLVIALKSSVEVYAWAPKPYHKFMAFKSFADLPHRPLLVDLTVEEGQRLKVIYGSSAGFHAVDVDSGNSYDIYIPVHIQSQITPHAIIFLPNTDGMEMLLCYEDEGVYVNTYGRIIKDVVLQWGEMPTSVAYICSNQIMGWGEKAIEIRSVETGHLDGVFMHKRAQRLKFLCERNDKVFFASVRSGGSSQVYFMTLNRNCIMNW
Chain of MNK1 (Q9BUB5 whole entry, species assumed): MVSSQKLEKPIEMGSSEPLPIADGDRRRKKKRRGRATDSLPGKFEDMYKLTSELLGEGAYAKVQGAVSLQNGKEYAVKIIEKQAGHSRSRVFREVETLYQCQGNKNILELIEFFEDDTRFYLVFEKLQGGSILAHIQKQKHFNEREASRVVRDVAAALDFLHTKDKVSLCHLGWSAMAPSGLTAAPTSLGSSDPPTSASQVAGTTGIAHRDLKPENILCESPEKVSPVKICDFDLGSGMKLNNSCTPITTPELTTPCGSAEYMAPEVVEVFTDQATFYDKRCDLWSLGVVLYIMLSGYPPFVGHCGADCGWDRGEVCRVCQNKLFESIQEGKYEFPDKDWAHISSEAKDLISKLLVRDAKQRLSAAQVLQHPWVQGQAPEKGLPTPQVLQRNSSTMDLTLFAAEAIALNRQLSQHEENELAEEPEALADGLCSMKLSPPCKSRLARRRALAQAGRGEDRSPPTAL

Row | Structure (SMILES) | residual kinase activity, AMPK (AMPK) | residual kinase activity, DAPK1 (DAPK1; [1]) | residual kinase activity, MLK1 (MLK1; [1]) | residual kinase activity, MEKK1 (MEKK1; [1]) | residual kinase activity, MINK1 (MINK1; [1]) | residual kinase activity, BRK (BRK; [1]) | residual kinase activity, SIK2 (SIK2; [1]) | residual kinase activity, CK1γ2 (CK1γ2; [1]) | residual kinase activity, BRSK2 (BRSK2; [1]) | residual kinase activity, PIM2 (PIM2; [1]) | residual kinase activity, CSK (CSK; [1]) | residual kinase activity, MST4 (MST4; [1]) | residual kinase activity, CDK9-Cyclin T1 (CDK9-Cyclin T1; [1]) | residual kinase activity, MNK1 (MNK1; [1]) | residual kinase activity, IKKb (IKKb; [1]) | other results
1 | CC(=O)Nc1nc2cc(O)ccc2s1 [Compound 01-66, N-(5-hydroxybenzo[d]thiazol-2-yl)acetamide] | 61 | – | – | – | – | – | – | – | – | – | – | – | – | – | – | remaining activity at 100 µM (DAPK1): 44%; remaining activity at 100 µM (MLK1): 39%; remaining activity at 100 µM (MEKK1): 94%; remaining activity at 100 µM (MINK1): 48%; remaining activity at 100 µM (BRK): 77%; remaining activity at 100 µM (SIK2): 56%; remaining activity at 100 µM (CK1γ2): 6%; remaining activity at 100 µM (BRSK2): 56%; remaining activity at 100 µM (PIM2): 16%; remaining activity at 100 µM (CSK): 92%; remaining activity at 100 µM (MST4): 84%; remaining activity at 100 µM (CDK9-Cyclin T1): 85%; remaining activity at 100 µM (MNK1): 17%; remaining activity at 100 µM (IKKb): 62%
2 | CC(=O)Nc1nc2cc(F)ccc2s1 [Compound 03-77] | 73 | – | – | – | – | – | – | – | – | – | – | – | – | – | – | remaining activity at 100 µM (DAPK1; [1]): 82%; remaining activity at 100 µM (MLK1; [1]): 58%; remaining activity at 100 µM (MEKK1; [1]): 102%; remaining activity at 100 µM (MINK1; [1]): 65%; remaining activity at 100 µM (BRK; [1]): 91%; remaining activity at 100 µM (SIK2; [1]): 64%; remaining activity at 100 µM (CK1γ2; [1]): 22%; remaining activity at 100 µM (BRSK2; [1]): 77%; remaining activity at 100 µM (PIM2; [1]): 62%; remaining activity at 100 µM (CSK; [1]): 98%; remaining activity at 100 µM (MST4; [1]): 88%; remaining activity at 100 µM (CDK9-Cyclin T1; [1]): 46%; remaining activity at 100 µM (MNK1; [1]): 64%; remaining activity at 100 µM (IKKb; [1]): 61%
3 | CC(=O)Nc1nc2cc(C)ccc2s1 [Compound 03-76] | 77 | 82 | 57 | 107 | 63 | 80 | 71 | 54 | 79 | 82 | 101 | 103 | 49 | 81 | 59 | –
4 | O=C(Nc1nc2ccc(O)cc2s1)c1cccnc1 [Compound 08-44] | 48 | 26 | 13 | 107 | 19 | 21 | 68 | 20 | 52 | 76 | 83 | 80 | 43 | 19 | 63 | –
5 | O=C(Nc1nc2ccc(O)cc2s1)c1ccccn1 [Compound 03-12] | 86 | 25 | 31 | 127 | 48 | 61 | 77 | 57 | 79 | 75 | 101 | 80 | 76 | 67 | 84 | –
6 | CC(=O)Nc1nc2ccccc2s1 [Compound 03-32] | 107 | 89 | 72 | 93 | 92 | 89 | 81 | 41 | 91 | 100 | 83 | 110 | 45 | 89 | 75 | –
7 | CC(=O)Nc1nc2cc(C(F)(F)F)ccc2s1 [Compound 03-73] | 75 | – | – | – | – | – | – | – | – | – | – | – | – | – | – | remaining activity at 100 µM (DAPK1; [1]): 93%; remaining activity at 100 µM (MLK1; [1]): 75%; remaining activity at 100 µM (MEKK1; [1]): 111%; remaining activity at 100 µM (MINK1; [1]): 77%; remaining activity at 100 µM (BRK; [1]): 106%; remaining activity at 100 µM (SIK2; [1]): 91%; remaining activity at 100 µM (CK1γ2; [1]): 79%; remaining activity at 100 µM (BRSK2; [1]): 98%; remaining activity at 100 µM (PIM2; [1]): 63%; remaining activity at 100 µM (CSK; [1]): 91%; remaining activity at 100 µM (MST4; [1]): 91%; remaining activity at 100 µM (CDK9-Cyclin T1; [1]): 97%; remaining activity at 100 µM (MNK1; [1]): 89%; remaining activity at 100 µM (IKKb; [1]): 94%
